Measured values from patent US20190151369A1, “Engineered Stem Cell Therapy for Cardiac Repair” (Emory University, priority 2014, published 2019).
Where no end group is shown, it is not given here. The star is where a group is joined. Palmitoyl = CCCCCCCCCCCCCCCC(=O)*

Experiments:
[1] = test system: RNVCMs; assay: Live/Dead assay after H2O2 treatment (simulated ischemic injury in vitro); format: cell-based; settings: H2O2 (200 μM) treatment
Description: Since oxidative stress in the ischemic heart is increasingly recognized as a possible cause for poor survival of transplanted cells, whether encapsulation of the CMs with PA-RGDS increases their survival when exposed to the H2O2 simulating ischemic condition in vitro was investigated.

[2] = Mechanical properties of self-assembled PA-RGDS gel (storage modulus); format: physicochemical
Description: Cardiomyocytes (CMs) derived from pluripotent stem cells (PSCs) including both embryonic stem cells (ESCs) and the induced pluripotent stem cells (iPSCs) are useful for generating new CMs in injured hearts, with PA-RGDS, which addresses low cell survival. The PA-RGDS provides a protective microenvironment for CMs in vivo. An important aspect of the PA-RGDS is the physical properties of the gels, which can be tuned to provide mechanical strength. […] PA-RGDS nanomatrix gels were also observed to be structurally stable with well-defined cylindrical shape and increased durability for handling and transport. This is particularly important for early cell survival, as cardiac tissue scaffolds require enough mechanical strength to resist the cardiac cycle, but enough flexibility to allow the contractile function of implanted CMs. The mechanical strength of PA-RGDS can be tuned for the application.

[3] = test system: mouse experimental MI; assay: Scar area by Masson's trichrome staining of infarcted hearts; format: in vivo; settings: 4 weeks after MI induction, N=6
Description: (§1) Myocardial infarction (MI) was induced in mice by ligation of the left anterior descending coronary artery, and cells or other reagents were intramyocardially injected through 30 G needles at two different sites in the border zone of the myocardium immediately after surgery. Mice were randomly assigned into four treatment groups: (i) PBS as a control group, (ii) 2×10^5 mESCs-derived CMs only, (iii) PA-RGDS only, or (iv) 2×10^5 mESCs-derived CMs encapsulated with PA-RGDS. Due to the limiting factor of murine heart size and the requirement to deliver a large quantity of cells, only one concentration ratio of PA […] to cells was used for the studies. All CMs were obtained from the same differentiation batch and prelabeled with CM-DiI (red fluorescence) before cell injection for cell tracking in histology.
Masson's Trichrome staining was performed with fixed sections of infarcted hearts to evaluate the extent of scar formation 4 weeks after MI induction.

[4] = test system: mouse experimental MI; assay: Echocardiography (EF, FS) in mouse myocardial infarction model; format: in vivo; settings: up to 4 weeks after MI induction
Description: as §1
Next, the therapeutic effects of treatments with CM only, PA-RGDS only and mESC-CMs with PA-RGDS, comparing with PBS control in ischemic myocardium in mice was investigated. Echocardiography was performed regularly to measure cardiac remodeling and function (FIG. 6A).
Prior studies reported that the beneficial effects from treatment with various types of stem cells or stem cell derived cells were substantially diminished by 3-4 weeks, mostly due to massive cell death or ejection from the myocardium. […] (FIG. 7A)

CH3(CH2)14CONH-GTAGLIGQ-RGDS (Palmitoyl-GTAGLIGQRGDS) [PA-RGDS, gels made 1:1 with PA-S]
Live cells (Live/Dead assay) after H2O2 [1]: increased cell survival
Storage modulus (G′) [2]: around 100 Pa
Scar area [3]: 41.7±4.7%
Cardiac function (EF and FS) by echocardiography [4]: dramatically reduced
